Common to all, as to assay: NCI-60 cell line screen, 48 h
The test system of assay [1] is COLO 205 colon.
Assay [2] concerns HOP-92 NSCLC.
Assay [3] has as its system K-562 leukemia.
Assay [4] deals with NCI-H226 lung.
The subject of assay [5] is OVCAR-5 ovarian.
In assay [6] the test system is SF-268 CNS.
Assay [7] concerns SK-OV-3 ovarian.
For assay [8], the system named is SNB-75 CNS.
Assay [9] deals with SR leukemia.
Assay [10] deals with TK-10 renal.
Assay [11] relates to A498 renal.

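Growth conditions: 96-well plates. Treatment: test compound, 48 hours, 5 concentrations. Analysis: linear interpolation between bracketing concentrations; unreached endpoints set to highest concentration. TGI: concentration producing complete growth inhibition.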 Where a SMILES comes first, the peptide text is derived from it. [ ]: non-standard residue; d: D form. The star is where a group is joined. ξ: configuration not given here. NMeF = CN[CH](Cc1ccccc1)C(=O)O; ξNMe2Val = CC(C)C(C(=O)*)N(C)C; NMeV = CN[CH](C(=O)O)C(C)C; OtBu = CC(C)(C)O* Where only a bound is given, the exact number is not on record here.

`CC[C@]12C=CCN3CC[C@@]4(c5cc(Br)c(OC)cc5N(C)[C@H]4[C@@](O)(C(=O)NC(Cc4c[nH]c5ccccc45)C(=O)OC)[C@@H]1O)[C@@H]32` (some centres not stated): the TGI was 21 µM in assay [1]; more than 100 µM in assay [2]; more than 100 µM in assay [3]; more than 100 µM in [4]; more than 100 µM in [5]; more than 100 µM in assay [6]. For the same compound, the values for the TGI in assay [7], in assay [8] and in assay [9] were more than 100 µM, more than 100 µM and 34.9 µM, respectively.

On to `CC(C)C(C(=O)N(C)C(Cc1ccccc1)C(=O)N(C)C(C(=O)N(C)C(C(=O)N1CCCC1C(=O)OC(C)(C)C)C(C)C)C(C)C)N(C)C` (configuration not stated) (ξNMe2Val-[NMeF][NMeV][NMeV]P-OtBu; configuration not given here), for which the TGI in [1], in assay [3], in assay [4], in assay [6], in [9] and in [10] was more than 100 µM throughout.

Turning to `O=c1c2c3c(sc2nc2n1NC=NN2)CCCC3`, the TGI is more than 89.4 µM in assay [11]; 55.3 µM in assay [1]; 38.5 µM in assay [2]; 6.81 µM in assay [3]; 49.8 µM in assay [4]; 35.9 µM in assay [5]. In addition, the TGI was 34.8 µM in assay [6], more than 65.5 µM in [7], 59.1 µM in [8] and more than 56 µM in assay [10].

Turning to `O=c1/c(=C/c2ccccn2)sc2nc3cc4c(cc3n12)OCCO4`, the TGI in assay [11], in [1], in assay [2], in [3], in assay [4] and in [5] was more than 100 µM in each case. Also, the TGI in assay [6], in assay [7], in [8] and in assay [10] was more than 100 µM each time.

Regarding `Nc1ccn(C2CCC(COP(=O)(O)OCC(O)COP(=O)(O)OCC3OC(n4cc(F)c(=O)[nH]c4=O)CC3O)O2)c(=O)n1` (configuration not stated), the TGI is more than 100 µM in assay [1]; 4.59 µM in [2]; more than 100 µM in [3]; more than 100 µM in assay [4]; more than 100 µM in assay [5]; more than 100 µM in assay [6]. Also, the TGI in assay [7], in [8] and in [10] was more than 100 µM each time.

With `COc1cc(S(=O)(=O)Nc2ccc(-c3csc(N4C(=O)CSC4c4ccccc4O)n3)cc2)ccc1Cl` (configuration not stated), the TGI is 61.1 µM in [1]; 82.1 µM in assay [2]; more than 100 µM in assay [3]; more than 100 µM in assay [4]; more than 100 µM in assay [5]; more than 100 µM in assay [6]. Besides, the TGI in assay [7] is more than 100 µM; in [8], 92.2 µM; in assay [9], more than 100 µM.

As for `CC(=O)OCC1OC(n2c(=S)n(-c3ccccc3)c(=O)c3cc(Br)ccc32)C(OC(C)=O)C1OC(C)=O` (configuration not stated), the TGI in assay [11], in assay [1], in assay [2], in assay [4], in assay [5] and in assay [6] was more than 100 µM each time. In addition, the TGI in assay [7] and in assay [8] was more than 100 µM throughout.

As to `O=c1[nH]cnc2c1cnn2Cc1cnnn1COCCO`, the TGI in assay [11], in assay [1], in assay [2], in [3], in assay [4] and in assay [5] was more than 100 µM each time. In addition, the TGI in assay [6], in assay [7], in assay [8] and in assay [10] was more than 100 µM each time.

Regarding `O=C1c2cccnc2-c2nccc3c2c1nc1ccccc13`, the TGI in assay [11] stood at 1.03 µM; in assay [1], 4.77 µM; in assay [2] it was 2.54 µM; in assay [3], 0.667 µM; in assay [4], 0.738 µM; in assay [5], 1.65 µM. In addition, the TGI was 0.834 µM in [6], 1.19 µM in assay [7], 1.76 µM in assay [8] and 2.84 µM in assay [10].

For the compound `O=C1Nc2ccc(Cl)c(I)c2C1=O`, the TGI stood at 35.1 µM in [1]; 65.5 µM in assay [3]; 20 µM in assay [4]; 34.1 µM in assay [5]; 32.6 µM in assay [6]; 34.6 µM in [7]. Besides, the TGI was 50.8 µM in [8], 50.7 µM in [9] and more than 100 µM in assay [10].

For the compound `CC(=O)[C@@]1(c2ccccc2)CC2(CCN(C)CC2)O[C@H]1C`, the TGI in assay [11], in [1], in assay [2], in [3], in [4] and in assay [5] was more than 100 µM in each case. Besides, the TGI in [6], in [7], in assay [8] and in assay [10] was more than 100 µM each time.

For `CCCCCCCCCCCCCS(=O)(=O)NCC(N)=O`, the TGI in [11], in assay [1], in assay [2], in assay [4], in [5] and in assay [6] was more than 100 µM in each case. The TGI in assay [7] was more than 100 µM; in assay [8] it was 74.7 µM; in assay [10], more than 100 µM.

With `Fc1ccc(C(OCCN2CCC3CCC(C2)N3C/C=C/c2cccs2)c2ccc(F)cc2)cc1` (configuration not stated), the TGI in assay [11] was determined as 21 µM; in assay [1] it was 12.2 µM; in assay [2], 20.3 µM; in assay [4], 22.1 µM; in assay [5] it was 25.9 µM; in assay [6] it was 24.6 µM. In addition, the TGI was determined as 26.3 µM in assay [7], 29 µM in [8] and 24.3 µM in assay [10].

As for `CSC(C1c2ccccc2N(C)c2[nH]c(=O)n(C)c(=O)c21)S(=O)(=O)c1ccc(C)cc1` (configuration not stated), the TGI in [11], in [1], in [2], in assay [3], in [4] and in assay [5] was more than 100 µM in each case. For the same compound, the TGI in assay [6], in [7], in [8] and in [10] was more than 100 µM throughout.

`CC#CCCCC1(C)CCNC1=S` (configuration not stated): the TGI in assay [2], in [3], in [4], in [5], in [6] and in assay [7] was more than 10 µM each time. For the same compound, the TGI in [8], in assay [9] and in assay [10] was more than 10 µM each time.

`Cc1ccc(S(=O)(=O)NNS(C)(=O)=O)cc1`: the TGI in assay [1], in [3], in [6], in assay [8], in assay [9] and in assay [10] was more than 100 µM in each case.

As for `COc1ccc(Nc2nc(N)c(C(=O)c3ccc(Cl)cc3)s2)cc1`, the TGI in assay [11] is more than 100 µM; in assay [1], 0.117 µM; in [2], more than 93.3 µM; in [3], more than 100 µM; in assay [4] it was 0.117 µM; in assay [5], 34.7 µM. Moreover, the TGI in [6] was more than 67.5 µM; in assay [7], 20.4 µM; in [8] it was 24.8 µM; in assay [10], more than 46.3 µM.

Turning to `O=C(O)c1nn(-c2ccccc2)nc1-c1nn(-c2ccccc2)nc1C(=O)O`, the TGI in assay [1], in [2], in assay [3], in assay [4], in [5] and in assay [6] was more than 100 µM throughout. Also, the TGI in [7], in assay [9] and in assay [10] was more than 100 µM throughout.

With `C(=C/c1nnnn1-c1ccccc1)/Nc1ccccc1`, the TGI is more than 100 µM in [11]; more than 100 µM in assay [1]; 87.3 µM in assay [2]; more than 100 µM in assay [3]; 61.6 µM in assay [4]; more than 100 µM in [5]. The TGI is more than 100 µM in assay [6], more than 100 µM in assay [7], more than 100 µM in assay [8] and 77.5 µM in assay [10].

On to `O=C(NC1C/C(=N/O)c2c(Br)sc(Br)c21)C(F)(F)F` (configuration not stated), for which the TGI in assay [11] was 57.8 µM; in [1], more than 100 µM; in assay [2] it was 32.9 µM; in [3], 38.4 µM; in assay [4] it was 97.7 µM; in assay [5], more than 100 µM. Besides, the TGI in [6], in assay [7], in [8] and in assay [10] was more than 100 µM in each case.

Turning to `COC(=O)c1ccccc1C1CN=NC12Cc1ccc3c(c1C2=O)CCC3` (configuration not stated), the TGI in assay [11], in assay [1], in assay [2], in assay [3], in [4] and in [5] was more than 100 µM throughout. Moreover, the TGI in [6], in assay [7], in assay [8] and in assay [10] was more than 100 µM throughout.

On to `CC(=O)OCC1OC(N=[N+]=[N-])C(OC(C)=O)C(OC(C)=O)C1OC1OC(COC(C)=O)C(OC(C)=O)C(OC(C)=O)C1OC(C)=O` (configuration not stated), for which the TGI in assay [11], in [1], in assay [3], in [5], in assay [6] and in assay [7] was more than 100 µM each time. The figures for the TGI in [8] and in assay [10] were 60.8 µM and more than 100 µM, respectively.

`CCN(CC)c1c(C)nnn1C1OC(COC(C)=O)C(OC(C)=O)C(OC(C)=O)C1OC(C)=O` (configuration not stated): the TGI in [11], in assay [1], in [2], in assay [3], in assay [4] and in [5] was more than 100 µM in each case. Also, the TGI in assay [6], in assay [7], in [8] and in assay [10] was more than 100 µM each time.

Turning to `CCCCCCCCCCCCOC1C(COCCN2CCCCC2)OC2OC(C)(C)OC21` (configuration not stated), the TGI in [11] is 29.3 µM; in assay [1], 3.03 µM; in [4] it was 17.6 µM; in assay [5] it was 4.23 µM; in assay [6], 6.44 µM; in assay [7] it was 15.9 µM. This compound showed a TGI in assay [10] of 3.55 µM.

On to `O=C1CN(c2cccc(C(F)(F)F)c2)C(=O)CN1CCN1CC(=O)N(c2cccc(C(F)(F)F)c2)CC1=O`, for which the TGI in assay [1], in assay [3], in [5], in assay [6], in assay [7] and in [8] was more than 100 µM throughout. Moreover, the TGI in assay [9] and in assay [10] was more than 100 µM throughout.

With `CC#COS(=O)(=O)c1ccc(C)cc1`, the TGI in assay [1], in assay [3], in assay [4], in assay [5], in assay [6] and in assay [7] was more than 100 µM in each case. Further, the TGI in assay [9] and in [10] was more than 100 µM throughout.

On to `COc1ccc([C@H]2CC3C(=O)N(c4ccc(OC)cc4)C(=O)C3c3[nH]c4ccccc4c32)cc1` (some centres not stated), for which the TGI in assay [11] is more than 100 µM; in [1], more than 100 µM; in [2], 78.4 µM; in [3], more than 100 µM; in assay [4] it was more than 100 µM; in assay [5], more than 100 µM. For the same compound, the TGI was more than 100 µM in assay [6], more than 100 µM in [7], 83.7 µM in [8] and more than 100 µM in assay [10].

Consider `CCN(CC)CCC1CCCCN1CC(=O)N1c2cc(Cl)ccc2NC(=O)CC1C` (configuration not stated), for which the TGI in assay [11], in assay [1], in assay [2], in assay [3], in [4] and in assay [5] was more than 100 µM throughout. The TGI in assay [6], in assay [7] and in assay [10] was more than 100 µM throughout.

For the origin of these results see PubChem BioAssay (NCI).
